The nature of one data set: in vivo. To be noted: male, dog, in vivo, iv, 3 mg/kg, mean AUC(0-102 h). As for the experimental part:
In Example 10, the pharmacokinetics of the compound of Formula I in dogs following single intravenous and oral administration was evaluated and the oral bioavailability of five different salts of the compound of Formula I was compared. The compound of Formula I was administered to dogs as described in Table 12. The doses are expressed in mg of free base.
The experiments were performed in 15 male dogs (bodyweight 11-18 kg) from RCC Ltd., Biotechnology and Animal Breeding Division, Wolferstrasse 4, CH-4414, Fullinsdorf, Switzerland. The animals were housed under standard laboratory conditions throughout the study period.
For the pharmacokinetic studies, 1 mL blood samples were collected from the cephalic vein of the dogs via catheter at 15, 30 min and at 1, 2, 3, 4, 6, 8, 24, 32, 48, 56, 72, 80, 96, and 100 (or 104) hours following oral dosing. After intravenous administration, blood samples were collected at 5, 15, 30 min and 1, 2, 3, 4, 6, 8, 24, 32, 48, 56, 75, 102, 120, 128, 144, 152, 168, 176, 192, and 200 hours. Collection tubes contained EDTA/NaF as anticoagulant and stabilizer. After centrifugation, plasma was removed and stored deep frozen at approximately −20° C. until analysis using a specific LC-MS method.
Aliquots of 40 μL plasma were mixed with 50 μL buffer at pH 5, 50 μL internal standard of Formula I (1 μg/mL in 1-chlorobutane) and 250 μL butylacetate and then shaken for 10 min. After centrifugation, 200 μL of the supernatant were evaporated to dryness at 45° C. under a stream of nitrogen. The residue was reconstituted with 200 μL acetonitrile/1% formic acid in water (30/70, v/v). Aliquots of 30 μL were injected onto the analytical column (Waters, Symmetry C8, 2.1×150 mm, 5 μm).
Separation occurred by gradient elution using a solvent A (acetonitrile) and solvent B (1% formic acid in water). The flow rate was 0.3 mL/min and the gradient elution was: […]
The sample passed to the ion-spray interface of the single quadrupole mass spectrometer. Selected ion monitoring mode (SIM) was used for mass spectrometric detection. Quantification was based on peak area ratios and calibration curve established between 2 and 5000 ng/mL.
To a 100 μL sample aliquot were added 200 μL of a mixture of acetonitrile/ethanol containing the deuterated internal standard, to precipitate plasma proteins. After vortex mixing and centrifugation, aliquots of the supernatants were transferred to 96-deel-well plates and injected for analysis (5 μL). Following enrichment and cleanup on the trapping column, the analyte was eluted and separated by gradient elution on a 2.1*30 mm analytical column (XTerra MS C18). The effluent from the analytical column was passed to the turbo ion spray vie a divert valve.
Calibration standards were prepared in dog plasma. The calibration range was from 10-5000 ng/mL. In each analytical series, a set of calibration standards was worked up and run with the unknowns. Calibration was then performed by computing a weighted (1/X^2) least-squares linear regression line of the measured peak area ratios (Y) (analyte to internal standard) versus the spiked concentrations (X). The drug concentrations of the unknown samples were then calculated from this regression line (UNICHROM). The performance of the analytical procedure during sample analysis was monitored. With each analytical series, quality control (QC) samples in dog plasma, spiked with known amounts of the analyte, were run together with the study samples.
The pharmacokinetic parameters were estimated by non-compartmental analysis, using the pharmacokinetic evaluation program WinNOnlin [1]. AUC(0-inf.) was calculated applying the linear trapezoidal rule and extrapolation to infinity using the apparent elimination rate constant kz and the calculated concentration at the last measurable time point. AUClast values were calculated by linear trapezoidal rule from time zero to time of last measureable time point.

Data set [1] can be described thus: Brain and CSF penetration after intravenous administration in rats. The format is in vivo. To be noted: male, RoRo Fuellinsdorf, rat, brain homogenate / plasma, i.v., approximately 0.25, 0.5, 1 and 2 h, read-out: ratios of brain homogenate/plasma concentrations. The method, then:
After centrifugation, plasma was removed.
The frozen half brain was weighed. After thawing, the tissue was suspended in a 2 mL eppendorf polypropylene tube with 2 volumes of sterile apyrogen and cold NaCl (+4° C.; 0.9% solution) (0.333 g brain/mL NaCl). The tissue was homogenized (ice bath) using a Vibra-Cell ultrasonic processor (Sonics & Material, Inc. Danbury, CT-USA) for 2×10 s (amplitude: 60, energy: 25). An aliquot of the resulting brain homogenate (40 μL) was used for extraction as described for plasma. 50 μL CSF with 50 μL plasma were used for extraction as described under plasma sample preparation.
Brains were taken at approximately 0.25, 0.5, 1 and 2 h after intravenous administration of Formula I into the tail vein of 8 rats (2 rats per time point). For all time points, the concentrations were higher in the brain than in the plasma, with ratios of brain homogenate/plasma concentrations of 2.4 to 4.9. The CSF was taken at the same time points and analyzed but the concentrations were low (4.9 to 16 ng/mL or below 4 ng/mL), possibly due to the high plasma protein binding.

Data set [2] is described as follows: Pilot whole body autoradiography study in rats. The format is in vivo.

The values that follow come from patent US10676440B2, “Crystalline forms of an NK-1 antagonist” (Helsinn Healthcare SA, priority 2014, dated 2020).

For the compound `Cc1ccccc1-c1cc(N2CCN(C)CC2)ncc1N(C)C(=O)C(C)(C)c1cc(C(F)(F)F)cc(C(F)(F)F)c1` [Formula I, 2-(3,5-bis(trifluoromethyl)phenyl)-N,2-dimethyl-N-(6-(4-methylpiperazin-1-yl)-4-(o-tolyl)pyridin-3-yl)propanamide], the AUC(0-t) in “in vivo” was determined as 11800 ng·h/mL. Besides, the Kp in data set [1] lay within 2.4 to 4.9. Moreover, the “distribution and elimination of the labeled compound and/or metabolites” value in data set [2] is recorded as “extensive distribution of the labeled compound and/or metabolites as well as a very slow elimination from the body”.
